Data from patent US20100099614A1, “Antimicrobial Peptides and Methods of Use” (priority 2008, published 2010).
Values after ≈ are worked out from the molar mass of the structure shown. Values joined by “and” are separate entries in the source; they are usually repeats but may differ in a detail not shown here. Equal entries are not always repeated.

Key:
human red blood cells = test: Hemolytic activity (MHC50/HC50), 18 h microtiter dilution; format: cell-based; conditions: for Hemolytic activity Fold (fold improvement in HC50 compared to that of D4): relative to D4
Experimental: Hemoglobin release was determined spectrophotometrically at 570 nm. […] MHC50 was determined by plot the concentration-lysis format.

Gram-negative bacteria = test: Antibacterial activity (MIC), microtiter dilution; format: cell-based
Experimental: MICs were determined by a standard microtiter dilution method in Mueller Hinton Broth (MHB). Serial dilutions of the 10× compound were added to the microtiter plates in a volume of 10 μL followed by 90 μL of bacteria for an inoculum of 5×10^5 colony-forming units (CFU)/mL. The plates were incubated at 37° C. for 24 h, and the MICs were determined as the lowest peptide concentration that inhibited growth. […]
Alternatively; minimal inhibitory concentrations were determined using a standard microtiter dilution method in a Mueller-Hinton (MH) medium. Briefly, cells were grown overnight at 37° C. in MH broth and diluted in the same medium. Serial dilutions of the peptides were added to the microtiter plates in a volume of 100 μl followed by 10 μl of bacteria for an initial cell concentration of 1×10^5 CFU/ml. Plates were incubated at 37° C. for 24 hours and MICs determined as the lowest peptide concentration that inhibited growth.

[1] = tested on: Aspergillus nidulans (AZN 2867); test: Antifungal activity (MIC50/MIC90); format: cell-based
From the text: (§1) The filamentous fungal and yeast strains used in this study were either purchased from American Type Culture Collection, Manassas, Va. (ATCC) or were generous gifts from various institutions: Aspergillus nidulans (AZN 2867), Absidia corymbifera (clinical isolate), Rhizomucor spp. (clinical isolate), Rhizopus microsporus (clinical isolate), Rhizopus oryzae (AZN 8892), Scedosporium prolificans (clinical isolate), Candida albicans (ATCC 24433).
(§2) Fungal spores (final concentration 10^4 spores/ml) were suspended in ½ Potato Dextrose Broth (Difco), and the yeast strains were suspended at a starting A600=0.001 in the yeast complete medium YPG (1% yeast extract, 1% peptone, 2% glucose). The medium was supplemented with tetracycline (10 μg/ml) and cefotaxim (100 μg/ml), and dispensed by aliquots of 80 μl into wells of a microplate containing 20 μl of either water or the sample to be analyzed. Growth of fungi and yeasts was evaluated after 24 h at 30° C. by light microscopy and after 48 h by measuring the culture absorbance at 595 nm using a microplate reader. Under conditions where the antifungal assay was performed in the presence of salt, the ½ Potato Dextrose Broth medium was prepared in phosphate-buffered saline, 137 mM NaCl.
(§3) The procedure used for the determination of the minimal inhibitory concentration (MIC) was identical to that for the antifungal assay. The MIC values are expressed as the lowest peptide concentration that causes 90% or 50% growth inhibition. The fungicidal effects of the synthetic peptides in the MIC assay were verified by reinoculation of the yeasts in potato dextrose broth at the end of the incubation time.

[2] = tested on: Candida albicans (ATCC 24433); test: Antifungal activity (MIC50/MIC90); format: cell-based
From the text: as §1, §2, §3

[3] = tested on: Scedosporium prolificans (clinical isolate); test: Antifungal activity (MIC50/MIC90); format: cell-based
From the text: as §1, §2, §3

Interleukin-6 (IL-6) = test: Cytokine assay, stimulation of peripheral blood mononuclear cells, ELISA; format: cell-based, human
Experimental: (§4) Isolation of peripheral blood mononuclear cells (PBMCs) from 5 healthy individuals was performed as described elsewhere (108). Briefly, venous blood was drawn into 10 ml tubes containing 0.2 mg of EDTA (Monoject's-Hertogenbosch, NL). The PBMC fraction was obtained by density centrifugation of blood using Ficoll-Paque (Pharmacia Biotech AB, Sweden). […] The PBMCs were incubated in 96-well tissue culture plates (Greiner, Alphen, NL) at a concentration of 5×10^5 cells per well in a total volume of 200 μl, in the presence or absence of a set of stimuli in different experiments. […] After 24 h of incubation, the supernatants were collected and stored at -80° C. until analysis. Interleukin-6 (IL-6) and tumor necrosis factor (TNF) were measured by ELISA according to the manufacturer's protocol ([…], CLB, Amsterdam, NL). […] Agilent Technologies) with a linear AB gradient (0.2% acetonitrile/min) at a flow rate of 2 ml/min, where mobile phase A was 0.1% aqueous TFA in water and B was 0.1% TFA in acetonitrile. The purity of peptides was verified by analytical RP-HPLC. The peptides were further characterized by electrospray mass spectrometry and amino acid analysis.

[4] = tested on: tumor necrosis factor (TNF); test: as above; format: cell-based, human
Experimental: as §4

[5] = tested on: Absidia corymbifera (clinical isolate); conditions: mean of 2 sets
[6] = tested on: Rhizomucor spp. (clinical isolate)
[7] = tested on: Rhizopus microsporus (clinical isolate)
[8] = peptide concentration 0.01 μg/ml
[9] = peptide concentration 100 μg/ml

CC[C@@H](C)[C@@H](NC(=O)[C@@H](C)NC(=O)[C@@H](CCCCN)NC(=O)[C@@H](CC(C)C)NC(=O)[C@@H](C)NC(=O)[C@H](NC(=O)[C@@H](Cc1c[nH]cn1)NC(=O)[C@@H](CC(C)C)NC(=O)[C@H](NC(=O)[C@H](NC(=O)[C@@H](CCCCN)NC(=O)[C@@H](CCCCN)NC(=O)[C@@H](C)NC(=O)[C@@H](CO)NC(=O)[C@@H](CCCCN)NC(=O)[C@@H](Cc1ccccc1)NC(=O)[C@H](NC(=O)[C@@H](CCCCN)NC(=O)[C@@H](CC(C)C)NC(=O)[C@@H](Cc1ccccc1)NC(=O)[C@@H](CO)NC(=O)[C@@H](CCCCN)NC(=O)[C@@H](Cc1c[nH]c2ccccc12)NC(=O)[C@@H](CCCCN)NC(C)=O)[C@H](C)O)[C@H](C)O)C(C)C)[C@H](C)O)C(=O)N[C@H](CO)C(=O)N[C@H](CO)C(N)=O [D1]
Hemolytic activity HC50 (human red blood cells; further experiments, 50% hemolysis of human red blood cells after 18 h): 421.5 µg/mL | Hemolytic activity Fold (fold improvement in HC50 compared to that of D4) (human red blood cells; further experiments): 120 fold | Hemolytic activity HC50 (human red blood cells; peptide concentration that produces 50% hemolysis of human red blood cells after 18 h, standard microtiter dilution method): 1000 µg/mL and 1000.0 µg/mL | Hemolytic activity Fold (fold improvement in HC50 compared to that of D4) (human red blood cells): 286 fold | MIC E. coli C498 UB1005 (Gram-negative bacteria; E. coli C498 UB1005, MH medium, 37° C., 24 h): 2 µg/mL (≈ 0.669 µM) | MIC E. coli C857 DH5a (Gram-negative bacteria; E. coli C857 DH5a, MH medium, 37° C., 24 h): 2 µg/mL (≈ 0.669 µM) | MIC E. coli UB1005 (Gram-negative bacteria; E. coli UB1005, MH medium, 37° C., 24 h): 4 µg/mL (≈ 1.34 µM) | MIC P. aeruginosa PAO1 (Gram-negative bacteria; P. aeruginosa PAO1, Mueller-Hinton medium, 37° C., 24 h, four sets of determinations): 8 µg/mL (≈ 2.68 µM) | MIC S. ryphimurium 14208S (Gram-negative bacteria; S. ryphimurium 14208S, MH medium, 37° C., 24 h): 32 µg/mL (≈ 10.7 µM) | MIC S. ryphimurium C587 14208S (Gram-negative bacteria; S. ryphimurium C587 14208S, MH medium, 37° C., 24 h): 4 µg/mL (≈ 1.34 µM) | Fold improvement in antimicrobial activity (geometric mean data) compared to that of D4, Gram-negative bacteria (Gram-negative bacteria; relative to D4): 4.5 fold | MIC GM (geometric mean of the MIC values), Gram-negative bacteria (Gram-negative bacteria; six Gram-negative strains, 128 μg/mL used where no activity at 64 μg/mL): 5.0 µg/mL | A. nidulans MIC50 ([1]; inhibits 50% of fungal growth): 9.4 µg/mL | A. nidulans MIC90 ([1]; inhibits 90% of fungal growth): 50.0 µg/mL | C. albicans MIC50 ([2]; inhibits 50% of fungal growth): 50.0 µg/mL | C. albicans MIC90 ([2]; inhibits 90% of fungal growth): 50.0 µg/mL | S. prolificans MIC50 ([3]; inhibits 50% of fungal growth): 50.0 µg/mL | S. prolificans MIC90 ([3]; inhibits 90% of fungal growth): 50.0 µg/mL | IL-6 Exp 1 (Interleukin-6 (IL-6); [8]): <3 pg/mL | IL-6 Exp 2 (Interleukin-6 (IL-6); peptide concentration 0.01 μg/ml, Exp 2): <3 pg/mL | IL-6 Exp 1 (Interleukin-6 (IL-6); [9]): <3 pg/mL | TNF Exp 1 [4, 8]: <0.015 ng/mL | TNF Exp 2 [4, 8]: <0.015 ng/mL | TNF Exp 1 ([4]; peptide concentration 1 μg/ml): <0.015 ng/mL | TNF Exp 2 ([4]; peptide concentration 1 μg/ml): <0.015 ng/mL | TNF Exp 1 [4, 9]: <0.015 ng/mL | TNF Exp 2 [4, 9]: <0.015 ng/mL | MIC B. subtilus C626 (Gram-positive bacteria; B. subtilus C626, MH medium, 37° C., 24 h): 32 µg/mL (≈ 10.7 µM) | MIC B. subtilus C971 ATCC6633 (Gram-positive bacteria; B. subtilus C971 ATCC6633, MH medium, 37° C., 24 h): 2 µg/mL (≈ 0.669 µM) | MIC E. jaecalis C625 (Gram-positive bacteria; E. jaecalis C625, MH medium, 37° C., 24 h): 32 µg/mL (≈ 10.7 µM) | MIC S. aureus C622 ATCC3923 (Gram-positive bacteria; S. aureus C622 ATCC3923, MH medium, 37° C., 24 h): 64 µg/mL (≈ 21.4 µM) | MIC S. aureus K147 (Gram-positive bacteria; S. aureus K147, MH medium, 37° C., 24 h): 64 µg/mL (≈ 21.4 µM) | MIC S. epidermidis C623 (Gram-positive bacteria; S. epidermidis C623, MH medium, 37° C., 24 h): 4 µg/mL (≈ 1.34 µM) | Fold improvement in antimicrobial activity (geometric mean data) compared to that of D4, Gram-positive bacteria (Gram-positive bacteria; relative to D4): 0.9 fold | MIC GM (geometric mean of the MIC values), Gram-positive bacteria (Gram-positive bacteria; six Gram-positive strains): 18.0 µg/mL | fold less active than D4 (Ascomycota fungi; Ascomycota fungi): 5 fold | Fold improvement in antifungal activity (geometric mean data) compared to that of D4, Ascomycota fungi (Ascomycota fungi; relative to D4): 0.2 fold | GM (geometric mean of the MIC50 values), Ascomycota fungi (Ascomycota fungi; three Ascomycota strains): 28.6 µg/mL | A. corymbifera MIC50 ([5]; peptide concentration that inhibits 50% of fungal growth): 12.5 µg/mL | A. corymbifera MIC90 ([5]; peptide concentration that inhibits 90% of fungal growth): 12.5 µg/mL | Rhizomucor spp. MIC50 ([6]; inhibits 50% of fungal growth): 4.7 µg/mL | Rhizomucor spp. MIC90 ([6]; inhibits 90% of fungal growth): 6.3 µg/mL | R. micosporus MIC50 ([7]; inhibits 50% of fungal growth): 6.3 µg/mL | R. micosporus MIC90 ([7]; inhibits 90% of fungal growth): 12.5 µg/mL
